Measured values as given in publication PMC5158193, “Molecular Characterization and Functional Analysis of a Novel Calcium-Dependent Protein Kinase 4 from Eimeria tenella” (PLoS ONE, 2016).

target: T1, rEtCDPK4 (Eimeria tenella, UniProt A0A165BP42); assay: PepTag C1-peptide non-radioactive kinase assay, A570; format: biochemical; details: 1 mM ATP, 1.3 mM CaCl2, 10 mM MgCl2, phosphatidylserine, 47.5 μM PepTag C1-peptide, pH 7.4, 30 °C
T1 construct: gene CDPK4; fragment, ORF bp 118-1777 (cDNA 303-1962); N-terminal 6xHis (pCold I), E. coli BL21; kinase domain and all six EF hands
T1 sequence (A0A165BP42 40-592): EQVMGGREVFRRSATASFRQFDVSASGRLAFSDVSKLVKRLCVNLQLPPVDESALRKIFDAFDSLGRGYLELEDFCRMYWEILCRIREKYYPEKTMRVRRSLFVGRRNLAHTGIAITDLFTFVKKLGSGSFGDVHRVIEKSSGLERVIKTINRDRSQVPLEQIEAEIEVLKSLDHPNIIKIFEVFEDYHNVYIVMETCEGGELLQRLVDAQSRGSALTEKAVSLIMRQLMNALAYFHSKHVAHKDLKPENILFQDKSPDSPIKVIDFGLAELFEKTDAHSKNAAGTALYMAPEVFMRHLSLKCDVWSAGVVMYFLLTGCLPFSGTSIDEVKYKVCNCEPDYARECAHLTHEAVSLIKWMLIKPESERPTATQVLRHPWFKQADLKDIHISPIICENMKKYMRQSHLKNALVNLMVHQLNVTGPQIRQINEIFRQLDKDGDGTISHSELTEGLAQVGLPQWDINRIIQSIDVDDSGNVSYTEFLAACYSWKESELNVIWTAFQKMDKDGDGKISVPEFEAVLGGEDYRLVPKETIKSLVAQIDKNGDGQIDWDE

Row | Structure (SMILES) | kinase activity at 100 μM inhibitor
1 | CC1CNCCN1S(=O)(=O)c1cccc2cnccc12 (centres unmarked) [H-7] | W-7, H-7, H-89, staurosporine, Ro-31-8220 and myristoylated peptide significantly decreased enzyme activity
2 | O=S(=O)(NCCNC/C=C/c1ccc(Br)cc1)c1cccc2cnccc12 [H-89] | W-7, H-7, H-89, staurosporine, Ro-31-8220 and myristoylated peptide significantly decreased enzyme activity
3 | Cn1cc(C2=C(c3cn(CCCSC(=N)N)c4ccccc34)C(=O)NC2=O)c2ccccc21 [Ro-31-8220] | W-7, H-7, H-89, staurosporine, Ro-31-8220 and myristoylated peptide significantly decreased enzyme activity
4 | NCCCCCCNS(=O)(=O)c1cccc2c(Cl)cccc12 [W-7] | W-7, H-7, H-89, staurosporine, Ro-31-8220 and myristoylated peptide significantly decreased enzyme activity
5 | CN[C@@H]1C[C@H]2O[C@@](C)([C@@H]1OC)n1c3ccccc3c3c4c(c5c6ccccc6n2c5c31)C(=O)NC4 [staurosporine] | W-7, H-7, H-89, staurosporine, Ro-31-8220 and myristoylated peptide significantly decreased enzyme activity
